Consider 18 compounds from ChEMBL document CHEMBL3745689, “Indomethacin derivatives as tubulin stabilizers to inhibit cancer cell proliferation” (Bioorg Med Chem, 2016).

The subject of one assay is NCI-H292. Put plainly: Cytotoxicity against human NCI-H292 cells after 72 hrs by MTT assay. The note with it: NCI-H292, 72 h. The format is functional, cell-based. (Formazan colour is commonly taken as a measure of viable cells.)
Assay [1] is described as follows: Cytotoxicity against human PC3 cells after 72 hrs by MTT assay. Type of assay: functional, cell-based. The note with it: PC-3, 72 h.
A further assay concerns HT-29. Put plainly: Cytotoxicity against human HT-29 cells after 72 hrs by MTT assay. Type of assay: functional, cell-based. The settings on record: HT-29, 72 h.
Assay [2] in a line: Cytotoxicity against human MDA468 cells after 72 hrs by MTT assay. Type of assay: functional, cell-based. The note with it: MDA-MB-468, 72 h.
The target in assay [3] is T1, Tubulin (Bos taurus) (UniProt Q6B856+Q862L2+Q862F3). Put plainly: Induction of bovine tubulin polymerization at 5 uM after 20 mins by spectrophotometer analysis. Type of assay: protein assay.
The target in assay [4] is T1, Tubulin (Bos taurus). The assay can be described thus: Stabilization of bovine tubulin polymerization at 10 uM after 20 mins by spectrophotometer analysis. Type of assay: protein assay.

Activity calls are given as the source filed them. The rule behind the calls is not given here.

By IC50 is commonly meant the point on the concentration scale where inhibition reaches its midpoint. Read a low IC50 as higher potency. `Cc1c(CC(=O)NCCN(C)C)c2cc(NC(=O)c3ccccc3)ccc2n1C(=O)c1ccc(Br)cc1`: the IC50 in the assay with NCI-H292 is 13.4 µM; in assay [1], 13.2 µM; in the assay on HT-29 it was 6.72 µM; in assay [2] it was 7.67 µM. `CCCC(=O)Nc1ccc2c(c1)c(CC(=O)NCCN(C)C)c(C)n2S(=O)(=O)c1ccccc1` had a half-inhibitory concentration (IC50) in the assay on NCI-H292 of 33.5 µM. With `Cc1c(CC(=O)NCCN(C)C)c2cc(NC(=O)c3cccc(OCc4ccccc4)c3)ccc2n1S(=O)(=O)c1ccccc1`, the IC50 with NCI-H292 worked out at 19.3 µM. Compound `Cc1c(CC(=O)NCCN(C)C)c2cc(N)ccc2n1C(=O)c1ccc(Br)cc1` yielded an IC50 in the assay on NCI-H292 of 31.5 µM. `CCC(=O)Nc1ccc2c(c1)c(CC(=O)NCCN(C)C)c(C)n2C(=O)c1ccc(Br)cc1` yielded a concentration for half-maximal inhibition (IC50) in the assay with NCI-H292 of 21.8 µM. In the case of `CC(=O)Nc1ccc2c(c1)c(CC(=O)NCCN(C)C)c(C)n2S(=O)(=O)c1ccccc1`, the IC50 in the assay on NCI-H292 is 113 µM. As to `Cc1c(CC(=O)NCCN(C)C)c2cc(NC(=O)c3cccc(OCc4ccccc4)c3)ccc2n1C(=O)c1ccc(Br)cc1`, the IC50 in the assay with NCI-H292 was found to be 1.73 µM; in assay [1], 8.8 µM; with HT-29, 1.48 µM; in assay [2], 2.37 µM. In addition, the result on Tubulin (Bos taurus) [3] and on Tubulin (Bos taurus) [4] was Active. In the assay on NCI-H292, `Cc1c(CC(=O)NCCN(C)C)c2cc(NC(=O)c3ccc(C#N)cc3)ccc2n1C(=O)c1ccc(Br)cc1` showed a concentration for half-maximal inhibition (IC50) of 20.8 µM.

In the assay on NCI-H292, `CCC(=O)Nc1ccc2c(c1)c(CC(=O)NCCN(C)C)c(C)n2S(=O)(=O)c1ccccc1` displayed a 50% inhibitory concentration (IC50) of 38.5 µM. Compound `Cc1c(CC(=O)NCCN(C)C)c2cc(NC(=O)C(C)C)ccc2n1S(=O)(=O)c1ccccc1` registered a 50% inhibitory concentration (IC50) in the assay with NCI-H292 of 30.9 µM. `CCCC(=O)Nc1ccc2c(c1)c(CC(=O)NCCN(C)C)c(C)n2C(=O)c1ccc(Br)cc1`: in the assay on NCI-H292, the 50% inhibitory concentration (IC50) was 39.6 µM.

The compound `Cc1c(CC(=O)NCCN(C)C)c2cc(NC(=O)OC(C)(C)C)ccc2n1S(=O)(=O)c1ccccc1` gave a 50% inhibitory concentration (IC50) in the assay on NCI-H292 of 25.9 µM.

Take `CC(=O)Nc1ccc2c(c1)c(CC(=O)NCCN(C)C)c(C)n2C(=O)c1ccc(Br)cc1`: in the assay with NCI-H292, the IC50 amounted to 67.6 µM. Same read-out and setting: as for `Cc1c(CC(=O)NCCN(C)C)c2cc(NC(=O)c3ccc(Br)cc3)ccc2n1S(=O)(=O)c1ccccc1`, the figure is 55.5 µM; as for `Cc1c(CC(=O)NCCN(C)C)c2cc(N)ccc2n1S(=O)(=O)c1ccccc1`, 64.2 µM; as for `Cc1c(CC(=O)NCCN(C)C)c2cc(NC(=O)OC(C)(C)C)ccc2n1C(=O)c1ccc(Br)cc1`, 14.9 µM. As for `COc1ccc(C(=O)Nc2ccc3c(c2)c(CC(=O)NCCN(C)C)c(C)n3C(=O)c2ccc(Br)cc2)cc1`, the half-inhibitory concentration (IC50) is 13.9 µM with NCI-H292, 10.2 µM in assay [1], 7.19 µM in the assay on HT-29 and 8.16 µM in assay [2].

In the assay with NCI-H292, `CC(=O)O[C@H]1C(=O)[C@@]2(C)[C@H]([C@H](OC(=O)c3ccccc3)[C@]3(O)C[C@H](OC(=O)[C@H](O)[C@@H](NC(=O)c4ccccc4)c4ccccc4)C(C)=C1C3(C)C)[C@]1(OC(C)=O)CO[C@@H]1C[C@@H]2O` [PACLITAXEL] came in with an IC50 of 0.006 µM. Further, on Tubulin (Bos taurus) [4], the outcome was Active.
